Measurements: the supplement of paper PMC10307832

Assays:
Assay in all cases: relative viability (nuclei count vs DMSO), 5 days (fraction); higher = more cells survive
4EGI-1 + Trametinib = compound: O=C(O)C(Cc1ccccc1[N+](=O)[O-])=NNc1nc(-c2ccc(Cl)c(Cl)c2)cs1 (mixture of isomers) [4EGI-1] + CC(=O)Nc1cccc(-n2c(=O)n(C3CC3)c(=O)c3c(Nc4ccc(I)cc4F)n(C)c(=O)c(C)c32)c1 [Trametinib] (partner 0.02 µM)
Summary of the method: (§1)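 Lung cancer cell lines were seeded in 1536-well plates and dosed by pin tool the next day, with either a single drug or a fixed anchor-drug dose combined with five library-drug doses (not always all listed) spaced in √10 steps. Five days later, one step fixed the cells and stained their nuclei (final 0.05% Triton X-100, 1% formaldehyde, 1 ug/ml Hoechst), and nuclei were counted on 4× images. Relative viability is the nuclei count in treated wells divided by the count in vehicle wells, and each value is the median of duplicate plates.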

XMD8-85 + Foretinib = compound: CN1CCN(CC1)C2=CC(=C(C=C2)NC3=NC=C4C(=N3)N(C5=CC=CC=C5C(=O)N4C)C)OC [XMD8-85] + COc1cc2c(Oc3ccc(NC(=O)C4(C(=O)Nc5ccc(F)cc5)CC4)cc3F)ccnc2cc1OCCCN1CCOCC1 [Foretinib] (partner 0.25 µM)
Summary of the method: as §1

XMD8-85 + Vorinostat = compound: CN1CCN(CC1)C2=CC(=C(C=C2)NC3=NC=C4C(=N3)N(C5=CC=CC=C5C(=O)N4C)C)OC [XMD8-85] + O=C(CCCCCCC(=O)Nc1ccccc1)NO [Vorinostat] (partner 1 µM)
Summary of the method: as §1

4EGI-1 + Navitoclax = compound: O=C(O)C(Cc1ccccc1[N+](=O)[O-])=NNc1nc(-c2ccc(Cl)c(Cl)c2)cs1 (mixture of isomers) [4EGI-1] + CC1(C)CCC(c2ccc(Cl)cc2)=C(CN2CCN(c3ccc(C(=O)NS(=O)(=O)c4ccc(N[C@H](CCN5CCOCC5)CSc5ccccc5)c(S(=O)(=O)C(F)(F)F)c4)cc3)CC2)C1 [Navitoclax] (partner 0.5 µM)
Summary of the method: as §1

| Cell Line | relative viability (4EGI-1 + Trametinib; first compound 0.5 µM) | relative viability (4EGI-1 + Trametinib; first compound 5 µM) | relative viability (4EGI-1 + Trametinib; first compound 15.81 µM) | relative viability (4EGI-1 + Trametinib; first compound 50 µM) | relative viability (XMD8-85 + Foretinib; first compound 0.253 µM) | relative viability (XMD8-85 + Foretinib; first compound 0.8 µM) | relative viability (XMD8-85 + Foretinib; first compound 2.53 µM) | relative viability (XMD8-85 + Foretinib; first compound 8 µM) | relative viability (XMD8-85 + Vorinostat; first compound 0.08 µM) | relative viability (XMD8-85 + Vorinostat; first compound 0.253 µM) | relative viability (XMD8-85 + Vorinostat; first compound 0.8 µM) | relative viability (XMD8-85 + Vorinostat; first compound 2.53 µM) | relative viability (XMD8-85 + Vorinostat; first compound 8 µM) | relative viability (4EGI-1 + Navitoclax; first compound 0.5 µM) | relative viability (4EGI-1 + Navitoclax; first compound 5 µM) | relative viability (4EGI-1 + Navitoclax; first compound 15.81 µM) | relative viability (4EGI-1 + Navitoclax; first compound 50 µM) | relative viability (4EGI-1 + Trametinib; first compound 1.581 µM) | relative viability (XMD8-85 + Foretinib; first compound 0.08 µM) | relative viability (4EGI-1 + Navitoclax; first compound 1.581 µM) |
| --- | --- | --- | --- | --- | --- | --- | --- | --- | --- | --- | --- | --- | --- | --- | --- | --- | --- | --- | --- | --- |
| LOU-NH91 | 0.812 | 0.764 | 0.704 | 0.724 | 0.966 | 0.863 | 1.02 | 0.843 | 0.896 | 0.904 | 0.91 | 1.04 | 0.641 | 0.91 | 0.741 | 0.367 | 0.526 | – | – | – |
| HCC-15 | 0.405 | 0.392 | 0.375 | 0.281 | 1.01 | 0.963 | 1.05 | 0.766 | 0.896 | 0.819 | 0.806 | 0.792 | 0.586 | 0.797 | 0.744 | 0.685 | 0.494 | 0.378 | 1.05 | 0.781 |
| NCI-H23 | 0.351 | 0.422 | 0.369 | 0.187 | 0.778 | 1.08 | 0.77 | 0.866 | 0.508 | 0.634 | 0.638 | 0.591 | 0.31 | 1.12 | 0.947 | 0.883 | 0.708 | – | 1.08 | – |
| HCC-78 | 1.18 | 0.733 | 0.674 | 0.788 | 0.572 | 0.519 | 0.537 | 0.531 | 0.395 | 0.43 | 0.391 | 0.427 | 0.434 | 0.96 | 0.753 | 0.829 | 0.802 | – | 0.539 | 0.492 |
| LC-2-ad | 0.919 | 0.855 | 0.843 | 0.595 | 0.976 | 0.995 | 0.785 | 0.607 | 0.739 | – | 0.702 | 0.691 | 0.434 | 0.536 | 0.398 | 0.25 | 0.0791 | 0.886 | 0.866 | 0.486 |
| HCC-366 | 0.454 | 0.429 | 0.262 | 0.0891 | 1.04 | 0.988 | 0.937 | 0.748 | 0.292 | 0.346 | 0.304 | 0.378 | 0.181 | 1.18 | 1.14 | 1.15 | 1.01 | 0.272 | 0.991 | 0.954 |
| PC-14 | 1.01 | 0.786 | 0.561 | 0.0572 | 0.826 | 0.881 | 1.03 | 0.851 | 0.463 | 0.566 | 0.667 | – | 0.327 | 1.09 | 0.985 | – | 0.981 | – | 0.953 | – |
| NCI-H647 | 0.585 | 0.475 | 0.384 | 0.129 | 1.3 | 1.34 | 1.04 | 0.865 | 0.573 | 0.746 | 0.673 | 0.632 | 0.346 | 1.27 | 1.12 | 0.995 | 0.307 | 0.493 | 1.37 | – |
| 201T | 0.714 | 0.742 | 0.744 | 0.636 | 1.24 | 1.13 | 0.733 | 0.703 | 1.01 | 1.03 | 0.961 | 0.978 | 0.741 | 1.25 | 1.2 | 1.19 | 1.19 | 0.705 | 1.13 | 1.21 |
| PC-3 [JPC-3] | 0.82 | 0.621 | 0.399 | 0.47 | 1.04 | 1.04 | 1.19 | 0.912 | 0.963 | 0.875 | 0.68 | 0.912 | 0.465 | 0.82 | 0.765 | – | 0.612 | – | 1.05 | 0.753 |
| HCC-827 | 0.575 | 0.611 | – | 0.505 | 1.1 | 0.948 | 1.13 | 1.11 | 0.909 | 0.824 | 0.802 | 0.959 | 0.773 | 1.04 | 0.938 | – | 0.789 | 0.458 | 1.03 | 0.936 |
| NCI-H1395 | 1.34 | 1.06 | 1.1 | 0.7 | 0.974 | 1.05 | 0.925 | 0.8 | 0.556 | 0.668 | 0.739 | 0.887 | 0.406 | 1.38 | 1.27 | 1.09 | 0.566 | – | 1.03 | – |
| EPLC-272H | 0.308 | 0.339 | 0.249 | 0.226 | 0.717 | 0.751 | 0.47 | 0.436 | 0.414 | 0.401 | 0.335 | 0.296 | 0.243 | 1.31 | 1.35 | 0.951 | 0.969 | – | 0.619 | 0.938 |
| NCI-H2087 | 0.212 | 0.234 | 0.2 | 0.126 | 1.11 | 1.32 | 1.15 | 0.682 | 0.668 | 0.967 | 0.806 | 0.708 | 0.456 | 1.08 | 0.999 | 0.647 | 0.218 | 0.2 | 1.34 | 0.883 |
| HARA | 0.882 | 0.944 | 0.539 | 0.211 | 0.701 | 0.97 | 0.782 | 0.583 | 0.549 | 0.592 | 0.565 | 0.427 | 0.47 | 1.15 | 1.12 | 1.15 | 0.672 | 0.632 | 1.09 | 1.1 |
| UMC-11 | 0.984 | 0.771 | 0.873 | 0.493 | 0.949 | 1.21 | 0.913 | 0.651 | 0.45 | 0.367 | 0.441 | 0.296 | 0.22 | 0.392 | 0.367 | 0.301 | 0.216 | 0.71 | 1.17 | 0.345 |
| NCI-H2170 | 0.956 | 0.876 | 0.866 | 0.645 | 1.01 | 0.985 | 1.02 | 0.965 | 0.914 | 0.8 | 0.792 | 0.877 | 0.715 | 0.671 | 0.584 | 0.573 | 0.354 | 0.773 | 1.04 | 0.515 |
